In US20250228765A1, “TREATING KNEE JOINT PAIN BY INJECTING RESIN[…] ULTRA LOW DOSES” (Gruenenthal GmbH, priority 2024, published 2025):

Experiments:
[1] = system: moderate to severe pain due to osteoarthritis of the knee; conditions: cited from earlier work
[2] = Comparative study in rats: synovial fluid pharmacokinetics after intraarticular dosing; type: in vivo; conditions: male, rat, 9.6 ng, across the three formulations
Procedure: (§1) Animals: 63 male rats (21 rats per formulation; plus an additional 3 animals as a replacement). Body weight: average 263 g (236-295 g). Dose (IA): ˜36.6 ng/kg=>9.6 ng/knee as an injection of 30 μL/knee of three various formulations with concentration 320 ng/mL. PK sampling: 7 timepoints: 10 min (animals not fully conscious between dosing and sampling), 20 min, 30 min, 1 h, 1.5 h, 2 h and 4 h (one sample per rat; 3 rats per timepoint) in plasma and synovial fluid. Tissue samples: at same time points as PK samples following tissue samples: meniscus, patella, femoral head and tibial plateau.
Sampling of synovial fluid: A 0.5 ml 28G Insulin syringes (fixed needle, no hub) were filled with 100 μl of the saline/EDTA solution. The skin was removed from the joint and then the needle was inserted through the patellar tendon into the joint space. The solution was then injected into the joint space, the knee was flexed a couple/few times (all with the needle still in the joint) and then was pulled back on the plunger to collected the mix of saline/EDTA and synovial fluid. The lavage fluid was then put into a microcentrifuge tube, it was spun to pellet any cells/debris and then the supernatant was collected.

[3] = Human study: safety and injection site pain after intraarticular injection; type: in vivo; conditions: for subjects with severe adverse events: none related to investigational medicinal product; for incidence of treatment emergent adverse events: placebo 75.0%
Procedure: (§2) The primary objective of this study was to compare the analgesic effects of single intraarticular injections of Resiniferatoxin (100 or 400 ng) compared to placebo, at 3 and 6 months postinjection, in participants with chronic osteoarthritic knee joint pain. Secondary objectives were to evaluate the analgesic effects of Resiniferatoxin versus placebo in terms of a responder analysis (percentage of subjects achieving ≥50% or ≥70% reduction in visual analog scale pain score) and changes in Western Ontario and McMaster Universities Arthritis Index (WOMAC) total and subscale scores (pain, physical function and stiffness). Safety and injection site pain were also evaluated.
(§3) The study was conducted as a randomized, double-blind, placebo-controlled, single-dose trial of Resiniferatoxin. Eligible patients were aged 40 to 80 years with radiographic knee osteoarthritis (Kellgren-Lawrence Grade 2-4 in the last 3 years) and a baseline visual analog scale (0-100 mm) pain score ≥40 mm on motion in the target knee, with or without pain medication. 67 subjects were randomized to treatment with either Resiniferatoxin 100 ng (n=24) or 400 ng (n=23), or placebo (n=20), administered intraarticularly into the index knee. Intraarticular Ropivacaine (5 ml, 0.5%) was administered 15 mins before investigational medicinal product. Visual analog scale scores were used to evaluate pain on motion as the average of the last 2 days in a target knee between baseline and at 3 and 6 months post injection. Injection site pain was rated (visual analog scale) from baseline (−0.5 h) up to 3 h post intraarticular injections.

[4] = system: naturally-occurring canine osteoarthritis; conditions: single intraarticular injection of 10 μg; 7 dogs with osteoarthritis; cited from earlier work
[5] = system: chronic osteoarthritic knee joint pain; experiment: Randomized, double-blind, placebo-controlled single-dose human study: analgesic effect of intraarticular injection; type: in vivo; conditions: for mean (SD) absolute reduction of visual analog scale score, pain on motion: 6 months, VAS 0-100 mm, placebo 28.26
Procedure: In a human study, two pharmaceutical dosage forms according to the invention were used comprising Resiniferatoxin (100 or 400 ng) in an aqueous ethanolic solution additionally containing polysorbate 80 (Tween® 80) as surfactant, trometamol as buffer and a combination of NaCl, KCl, and CaCl2) as inorganic salts.
as §2, §3

[6] = Comparative study in rats: knee tissue concentrations after intraarticular dosing; type: in vivo; conditions: male, rat, knee tissues, across the three formulations
Procedure: as §1

[7] = single intraarticular doses 100 ng or 400 ng

With C=C(C)[C@]12C[C@@H](C)[C@@]34O[C@](Cc5ccccc5)(O[C@@H]1[C@@H]3C=C(COC(=O)Cc1ccc(O)c(OC)c1)C[C@]1(O)C(=O)C(C)=C[C@@H]41)O2 [Resiniferatoxin, 4-hydroxy-3-methoxy-benzeneacetic acid, [(2S,3aR,3bS,6aR,9aR,9bR, 10R,11aR)-3a, 3b, 6,6a, 9a,10,11,11a-octahydro-6a-hydroxy-8,10-dimethyl-11a-(1-methylethenyl)-7-oxo-2-(phenylmethyl)-7H-2,9b-epoxyazuleno[5,4-e]-1,3-benzodioxol-5-yl]methyl ester] as the compound, how does the “sustained pain relief (anecdotal long-term follow up)” value ([1]; one-time intraarticular dose 5-30 μg) read?
Its value is over 365 days.

What about the “safety as onetime intraarticular injection” value ([1]; up to the planned highest dose of 30 μg) of the same compound?
The value was “demonstrated safety”.

And the half-life ([2]; read-out: half-life in SF (converted))?
Its half-life is about 1.5 h.

And the half-life ([2]; read-out: half-life in SF (range))?
Its half-life is 1.07 to 1.85 h.

What about the “subjects with severe adverse events” value ([3]; 100 ng group (n=24)) of the same compound?
Its value is 2 subjects.

What about the “incidence of treatment emergent adverse events” value ([3]; 100 ng group) of the same compound?
The value was 62.5%.

And the “subjects with severe adverse events” value ([3]; 400 ng group (n=23))?
The value was 3 subjects.

And the “incidence of treatment emergent adverse events” value ([3]; 400 ng group)?
Its value is 78.3%.

What about the “injection site pain (procedural pain) compared to placebo” value ([3]; intraarticular, 100 or 400 ng, VAS up to 3 h post injection) of the same compound?
The value was “generally higher”.

And the “time of peak injection site pain post-injection” value ([3]; moderate-severe intensity in some subjects)?
The value was “around 0.5 h”.

What about the “injection site pain return to baseline” value ([3]; post-injection) of the same compound?
Its value is at most 3 h.

What about the “safety profile and tolerability” value [3, 7] of the same compound?
The value was “good safety profile”.

What about the analgesic effect [4] of the same compound?
The analgesic effect was “significant and prolonged analgesic effect”.

What about the “reduction in WOMAC total and subscale scores (pain, physical function and stiffness) versus placebo” value ([5]; 100 ng and 400 ng groups, at both 3 and 6 months) of the same compound?
The value was “greater reduction”.

And the “mean (SD) absolute reduction of visual analog scale score, pain on motion” value ([5]; 100 ng single intraarticular injection)?
The value was 33.52 (22.89).

And the “mean (SD) absolute reduction of visual analog scale score, pain on motion” value ([5]; 400 ng single intraarticular injection)?
Its value is 41.48 (32.57).

What about the “analgesia evident during the follow-up period” value [5, 7] of the same compound?
The value was “at least 3 months”.

What about the “analgesic onset after administration” value [5, 7] of the same compound?
The value was “within one week”.

What about the half-life ([6]; 9.6 ng, read-out: half-life in the tissues (converted)) of the same compound?
The half-life was about 1.5 h.

And the half-life ([6]; other: intraarticular, 9.6 ng/knee, read-out: half-life in the tissues (converted))?
Its half-life is about 1.5 h.

What about the half-life ([6]; other: intraarticular, 9.6 ng/knee, read-out: half-life in the tissues (range)) of the same compound?
The half-life was 0.895 to 3.21 h.
